In PMC10747733, “N-Substituted 2-(Benzenosulfonyl)-1-Carbotioamide Derivatives Exert Antimicrobial and Cytotoxic Effects via Aldehyde Dehydrogenase Pathway: Synthesis, In Silico and In Vitro Studies” (Pharmaceuticals, 2023):
In brackets after ≈: the same amount, converted by molar mass.

Columns and labels:
Format in all cases: cell-based
[1] = test system: Candida albicans ATCC 10231; experiment: Broth microdilution antimicrobial activity
Description: (§1) Reference strains of microorganisms that came from American Type Culture Collection (ATCC) (Manassas, VA, USA) were used for this study. The representative Gram-positive bacteria were as follows: Staphylococcus aureus ATCC 25923, Staphylococcus aureus ATCC 29213, Staphylococcus aureus ATCC 43300, Staphylococcus epidermidis ATCC 12228, Enterococcus faecalis ATCC 29212, Micrococcus luteus ATCC 10240, Bacillus subtilis ATCC 6633 and Bacillus cereus ATCC 10876. While, those of Gram-negative bacteria were as follows: Bordetella bronchiseptica ATCC 4617, Escherichia coli ATCC 25922, Klebsiella pneumoniae ATCC 13883, Proteus mirabilis ATCC 12453, Salmonella Typhimurium ATCC 14028 and Pseudomonas aeruginosa ATCC 9027. Moreover, the following fungi belonging to yeasts were used: Candida albicans ATCC 10231, Candida albicans ATCC 2091, Candida parapsilosis ATCC 22019, Candida glabrata ATCC 90030 and Candida krusei ATCC 14243.
(§2) The new compounds WZ1–WZ4 were assayed for both antibacterial and antifungal activity using the broth microdilution method in accordance with the European Committee on Antimicrobial Susceptibility Testing (EUCAST) and Clinical and Laboratory Standards Institute (CLSI) guidelines. The microorganisms were grown at 35 °C for 18–24 h on appropriate media (nutrient agar and Sabouraud for bacteria and fungi, respectively) (BioMaxima S.A., Lublin, Poland). Next, microbial suspensions with an optical density of 0.5 McFarland standard scale (in sterile 0.85% NaCl) were prepared. In turn, the tested compounds were initially diluted at 50 mg/mL in dimethyl sulfoxide (DMSO) and the broth microdilution method was used to assess their minimum inhibitory concentrations (MICs). For these studies, selective broth Mueller-Hinton (MH) (BioMaxima S.A., Lublin, Poland) and RPMI (Roswell Park Memorial Institute) 1640 with MOPS (3-(N-Morpholino)propanesulfonic acid) (Sigma-Aldrich Chemicals, St. Louis, MO, USA) were used for bacteria and fungi, respectively. The antimicrobial effect of compounds WZ1–WZ4 was determined in the concentration range from 2000 to 0.98 µg/mL.
(§3) Then, the microbial suspensions were introduced into each well of the microplate and incubated for 18–24 h at 35 °C. […] The reference drugs ciprofloxacin or vancomycin (against bacteria) and nystatin (against fungi) (Sigma-Aldrich Chemicals, St. Louis, MO, USA) were also used. Next, the values of the minimum bactericidal concentration (MBC) and minimum fungicidal concentration (MFC) of WZ1–WZ4 were assessed. For this purpose, the cultures from each MIC determination well were transferred to a suitable solid medium and incubated under appropriate conditions. The lowest concentrations of compounds without microbial growth were read as MBC or MFC. The studies were performed in triplicate and representative data were gathered.
(§4) In turn, the MBC/MIC or MFC/MIC ratios were used to assess bactericidal/fungicidal (MBC/MIC or MFC/MIC ≤ 4) and bacteriostatic/fungistatic (MBC/MIC or MFC/MIC > 4) effect of these compounds [93].

[2] = test system: Candida albicans ATCC 2091; experiment: Broth microdilution antimicrobial activity
Description: as §1, §2, §3, §4

[3] = test system: Candida glabrata ATCC 90030; experiment: Broth microdilution antimicrobial activity
Description: as §1, §2, §3, §4

[4] = test system: Candida krusei ATCC 14243; experiment: Broth microdilution antimicrobial activity
Description: as §1, §2, §3, §4

[5] = test system: Candida parapsilosis ATCC 22019; experiment: Broth microdilution antimicrobial activity
Description: as §1, §2, §3, §4

[6] = test system: Bacillus cereus ATCC 10876; experiment: Broth microdilution antimicrobial activity
Description: as §1, §2, §3, §4

[7] = test system: Bacillus subtilis ATCC 6633; experiment: Broth microdilution antimicrobial activity
Description: as §1, §2, §3, §4

[8] = test system: Bordetella bronchiseptica ATCC 4617; experiment: Broth microdilution antimicrobial activity
Description: as §1, §2, §3, §4

[9] = test system: Escherichia coli ATCC 25922; experiment: Broth microdilution antimicrobial activity
Description: as §1, §2, §3, §4

[10] = test system: Klebsiella pneumoniae ATCC 13883; experiment: Broth microdilution antimicrobial activity
Description: as §1, §2, §3, §4

[11] = test system: Micrococcus luteus ATCC 10240; experiment: Broth microdilution antimicrobial activity
Description: as §1, §2, §3, §4

[12] = test system: Proteus mirabilis ATCC 12453; experiment: Broth microdilution antimicrobial activity
Description: as §1, §2, §3, §4

[13] = test system: Pseudomonas aeruginosa ATCC 9027; experiment: Broth microdilution antimicrobial activity
Description: as §1, §2, §3, §4

[14] = test system: Salmonella Typhimurium ATCC 14028; experiment: Broth microdilution antimicrobial activity
Description: as §1, §2, §3, §4

[15] = test system: Staphylococcus aureus ATCC 25923; experiment: Broth microdilution antimicrobial activity
Description: as §1, §2, §3, §4

[16] = test system: Staphylococcus aureus ATCC 29213; experiment: Broth microdilution antimicrobial activity; conditions: Staphylococcus aureus ATCC 29213
Description: as §1, §2, §3, §4

[17] = test system: Staphylococcus aureus ATCC 43300; experiment: Broth microdilution antimicrobial activity; conditions: Staphylococcus aureus ATCC 43300
Description: as §1, §2, §3, §4

[18] = test system: Staphylococcus epidermidis ATCC 12228; experiment: Broth microdilution antimicrobial activity
Description: as §1, §2, §3, §4

[19] = test system: Enterococcus faecalis ATCC 29212; experiment: Broth microdilution antimicrobial activity; conditions: Enterococcus faecalis ATCC 29212
Description: as §1, §2, §3, §4

[20] = test system: Erythrocytes from fresh sheep blood; experiment: in vitro
Protocol: The toxicity of WZ1–WZ4 compounds towards red blood cells was tested using the erythrocyte lysis assay (ELA). Erythrocytes from fresh sheep blood (BioMaxima S.A., Poland) were centrifuged and washed with 0.85% NaCl. Next, 100 μL of a 2% suspension of red blood cells in physiological saline was added to the wells of microtiter plate. The double dilutions of compounds WZ1–WZ4 were prepared in the range of 2000–15.62 μg/mL. Appropriate controls were used to assess the hemolytic potential of tested compounds, i.e., 100% lysis of erythrocytes using 4% Triton X-100 (Pol-Aura, Różnowo, Poland) and 0% lysis in saline solution. Next, all sample plates were incubated (1 h at 37 °C), centrifuged for 10 min to separate unlysed red blood cells, and the supernatant was placed in a new plate. The ELA is a biological test by which the lytic response can be measured spectrophotometrically (at a wavelength of 450 nm) by the amount of hemoglobin released. The hemolysis percentage was calculated according to the following equation:(1) % Hemolysis = A450 of test compound treated sample − A450 of buffer treated sample/A450 of 4% Triton X100 treated samples − A450 of buffer treated sample × 100

With C[C@@H]1[C@H](O)[C@@H](C)/C=C/C=C/CC/C=C/C=C/C=C/C=C/C(O[C@H]2O[C@H](C)[C@@H](O)[C@H](N)[C@@H]2O)CC2O[C@](O)(CC(O)C(O)CCC(O)CC(O)CC(O)CC(=O)O[C@H]1C)CC(O)C2C(=O)O (stereo partly shown) [NY, nystatin, reference compound] the MFC [1] was 0.48 µg/mL (≈ 0.518 µM), the MFC/MIC [1] was 1 and the MIC [1] was 0.48 µg/mL (≈ 0.518 µM). The MFC [2] was 0.24 µg/mL (≈ 0.259 µM), the MFC/MIC [2] was 1 and the MIC [2] was 0.24 µg/mL (≈ 0.259 µM). It also gave an MFC [3] of 0.48 µg/mL (≈ 0.518 µM), an MFC/MIC [3] of 2 and an MIC [3] of 0.24 µg/mL (≈ 0.259 µM). The MFC [4] was 0.24 µg/mL (≈ 0.259 µM), the MFC/MIC [4] was 1 and the MIC [4] was 0.24 µg/mL (≈ 0.259 µM). For the same compound, the MFC [5] was 0.48 µg/mL (≈ 0.518 µM), the MFC/MIC [5] was 2 and the MIC [5] was 0.24 µg/mL (≈ 0.259 µM).

In the case of O=C(O)c1cn(C2CC2)c2cc(N3CCNCC3)c(F)cc2c1=O [CIP, ciprofloxacin, reference compound], the MBC/MIC [6] is reported as 2, the MBC ([6]; ATCC10876) is reported as 0.12 µg/mL (≈ 0.362 µM) and the MIC ([6]; ATCC10876) is reported as 0.06 µg/mL (≈ 0.181 µM). For the same compound, the MBC/MIC [7] was 1, the MBC ([7]; ATCC6633) was 0.03 µg/mL (≈ 0.0905 µM) and the MIC ([7]; ATCC6633) was 0.03 µg/mL (≈ 0.0905 µM). The MBC/MIC [8] was 1, the MBC ([8]; ATCC4617) was 0.98 µg/mL (≈ 2.96 µM) and the MIC ([8]; ATCC4617) was 0.98 µg/mL (≈ 2.96 µM). For the same compound, the MBC/MIC [9] was 2, the MBC ([9]; ATCC25922) was 0.008 µg/mL (≈ 0.0241 µM) and the MIC ([9]; ATCC25922) was 0.004 µg/mL (≈ 0.0121 µM). For the same compound, the MBC/MIC [10] was 2, the MBC ([10]; ATCC13883) was 0.24 µg/mL (≈ 0.724 µM) and the MIC ([10]; ATCC13883) was 0.12 µg/mL (≈ 0.362 µM). It also gave an MBC/MIC [11] of 2, an MBC ([11]; ATCC10240) of 1.95 µg/mL (≈ 5.89 µM) and an MIC ([11]; ATCC10240) of 0.98 µg/mL (≈ 2.96 µM). For the same compound, the MBC/MIC [12] was 1, the MBC ([12]; ATCC12453) was 0.03 µg/mL (≈ 0.0905 µM) and the MIC ([12]; ATCC12453) was 0.03 µg/mL (≈ 0.0905 µM). The MBC/MIC [13] was 2, the MBC ([13]; ATCC9027) was 0.98 µg/mL (≈ 2.96 µM) and the MIC ([13]; ATCC9027) was 0.48 µg/mL (≈ 1.45 µM). The MBC/MIC [14] was 1, the MBC ([14]; Salmonella enterica) was 0.06 µg/mL (≈ 0.181 µM) and the MIC ([14]; Salmonella enterica) was 0.06 µg/mL (≈ 0.181 µM). The MBC/MIC [15] was 1, the MBC ([15]; ATCC25923) was 0.48 µg/mL (≈ 1.45 µM) and the MIC ([15]; ATCC25923) was 0.48 µg/mL (≈ 1.45 µM). For the same compound, the MBC ([16]; ATCC29213) was 0.48 µg/mL (≈ 1.45 µM), the MIC ([16]; ATCC29213) was 0.48 µg/mL (≈ 1.45 µM) and the MBC/MIC [16] was 1. It also gave an MBC ([17]; ATCC43300) of 0.24 µg/mL (≈ 0.724 µM), an MIC ([17]; ATCC43300) of 0.24 µg/mL (≈ 0.724 µM) and an MBC/MIC [17] of 1. For the same compound, the MBC/MIC [18] was 1, the MBC ([18]; ATCC12228) was 0.12 µg/mL (≈ 0.362 µM) and the MIC ([18]; ATCC12228) was 0.12 µg/mL (≈ 0.362 µM).

CN[C@H](CC(C)C)C(=O)N[C@H]1C(=O)N[C@@H](CC(N)=O)C(=O)N[C@H]2C(=O)N[C@H]3C(=O)N[C@H](C(=O)N[C@H](C(=O)O)c4cc(O)cc(O)c4-c4cc3ccc4O)[C@H](O)c3ccc(c(Cl)c3)Oc3cc2cc(c3O[C@@H]2O[C@H](CO)[C@@H](O)[C@H](O)[C@H]2O[C@H]2C[C@](C)(N)[C@H](O)[C@H](C)O2)Oc2ccc(cc2Cl)[C@H]1O [VA, vancomycin, reference compound] gave an MBC [19] of 1.95 µg/mL (≈ 1.35 µM), an MBC/MIC [19] of 2 and an MIC [19] of 0.98 µg/mL (≈ 0.676 µM).

Work on Triton X-100 [reference compound] yielded an erythrocyte lysis [20] of 100%.
